This passage reports IC50 results from publication PMC6728800, “Effect of piceatannol-rich passion fruit seed extract on human glyoxalase I–mediated cancer cell growth” (Biochemistry and Biophysics Reports, 2019).

pIC50: −log10 of the molar value. Where two headings read alike, the source gives them in different places.

The assay has as its target T1, human glyoxalase I (GLO I) (Homo sapiens, UniProt Q04760).
T1 construct: gene GLO1; recombinant GLO I
T1 sequence (Q04760 2-184): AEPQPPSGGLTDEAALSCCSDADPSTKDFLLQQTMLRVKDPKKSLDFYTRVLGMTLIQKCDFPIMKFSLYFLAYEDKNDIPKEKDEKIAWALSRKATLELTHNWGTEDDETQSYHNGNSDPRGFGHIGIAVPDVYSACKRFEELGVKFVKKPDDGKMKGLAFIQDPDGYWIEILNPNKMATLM
As to the kind of experiment: spectrophotometric assay of S-D-lactoylglutathione formation at […] nm with recombinant GLO I. It is filed as biochemical.

For orientation: pIC50 means −log10 of the IC50, conventionally taken in molar units. As for `Oc1cc(O)cc(/C=C/c2ccc(O)c(O)c2)c1` [piceatannol], the pIC50 was 6.12.
In the case of `Oc1cc(O)cc(C2c3c(/C=C/c4ccc(O)c(O)c4)cc(O)cc3OC2c2ccc(O)c(O)c2)c1` (centres unmarked) [scirpusin B], the pIC50 (read-out: IC50) was 5.38.
